# Assay results from PubChem BioAssay AID651684 (Sanford-Burnham Center for Chemical Genomics, 2012).
# Calls of active or inactive are those of the source.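 The calls were made as follows: active = any single replicate giving an EC50 below 30 µM; inactive = the rest.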
# Tested on: Pro5-aDG cells, alpha-DG glycosylation, IIH6 AlphaLISA
# Experiment: potency of alpha-dystroglycan glycosylation enhancers – Pro5-aDG cells, AlphaLISA, dose response (AID 651684)
row,Structure (SMILES),EC50
1,c1cncc(-c2nnc(-c3cccnc3)nn2)c1,8.73 µM
2,CC(C)N1CCN(c2ccc(OCC3COC(Cn4cncn4)(c4ccc(Cl)cc4Cl)O3)cc2)CC1 (configuration not stated),9.77 µM
3,Cc1cc(NC2=CC(=O)C(=O)c3ccccc32)no1,6.66 µM
4,CCc1ccc(C(CNC(=O)c2ccc3c(=O)n(-c4ccccc4F)c(=S)[nH]c3c2)N(C)C)cc1 (configuration not stated),1.9 µM
5,COc1cc(/C=C/C(=O)Nc2nc3ccc(S(=O)(=O)NC(C)C)cc3s2)cc(OC)c1OC,9.21 µM
6,CCCC[n+]1ccn(C2=C([O-])c3ccccc3C(=O)/C2=N\S(=O)(=O)c2ccc(Br)cc2)c1,6.95 µM
7,CC(C)n1cc(CN2CCCC(C(=O)Nc3cccc(-c4cc5ccccc5[nH]4)c3)C2)cn1 (configuration not stated),> 80 µM (inactive)
8,CN1CCN(c2ncnc3c2ncn3[C@H]2CN(Cc3ccc(-c4ccccc4)cc3)C[C@@H](CO)O2)CC1,16.1 µM
9,COc1ccc(Cc2nc(-c3ccc(NC(=O)c4cccnc4)cc3)no2)cc1,1.52 µM
10,C/C(=N/NC(=O)C(O)(c1ccccc1)c1ccccc1)c1ccc([N+](=O)[O-])o1,12.7 µM
11,N=c1c2c(ncn1CCCO)Oc1c(ccc3ccccc13)C2c1ccccc1 (configuration not stated),> 80 µM (inactive)
12,C=CCn1c(=N)n(CC(=O)c2ccc(Cl)cc2)c2ccccc21,41.6 µM (inactive)
13,CCn1c(=N)n(CC(=O)c2ccc(Cl)c(Cl)c2)c2ccccc21,32 µM (inactive)
14,CC(C)COc1ccc(CSCCNC(=S)Nc2ccccc2)cc1,6.37 µM
15,CC(C)c1ccc(-c2cc(C(=O)N3CCOCC3)c3cc(Br)ccc3n2)cc1,6.31 µM
16,N#Cc1ccc(-c2nc3c4ccccc4ccn3c2CC2CCCCC2)cc1,7.97 µM
17,COc1ccc(CN2CCC(C(=O)Nc3ccc(Oc4cccnc4)cc3)CC2)c(C)c1C,8.89 µM
18,CCC(c1nnnn1Cc1cccs1)N1CCN(c2nc3ccccc3s2)CC1 (configuration not stated),22.6 µM
19,COc1cccc(C(=O)Cn2c(=N)n(C)c3ccccc32)c1,58.4 µM (inactive)
20,CCCn1c(=N)n(CC(=O)c2ccc(Cl)cc2)c2ccccc21,33.6 µM
21,COc1ccccc1NC(=O)Nc1nc(C(N)Cc2ccccc2)cs1 (configuration not stated),> 80 µM (inactive)

row,Structure (SMILES),EC50
1,CCCn1c(=N)n(CC(=O)c2ccc(Cl)c(Cl)c2)c2ccccc21,31.2 µM (inactive)
2,Cc1cc(Br)ccc1OCCCCNC(C)(C)C,12.2 µM
3,CN1CCN(S(=O)(=O)c2cccc(C(=O)Nc3sccc3C#N)c2)CC1,37.6 µM
4,CC(=O)c1ccc(N2CCN(C(=O)Nc3ccc(C(C)C)cc3)CC2)cc1,12.8 µM
5,CN(C)CCCNC(=O)/C=C/c1ccc(OCc2c(F)cccc2Cl)cc1,9.37 µM
6,O=C1C(=O)N(CCS(=O)(=O)c2ccccc2)c2ccc(F)cc21,9.36 µM
7,CCc1nc2ccc(C(=O)NC3CCN(Cc4ccccc4)CC3)cn2c1N(C)Cc1cc2ccccc2s1,6.07 µM
8,Cc1cccc(/C=C2/Sc3ccc(C(=O)NCCN4CCCC4)cc3NC2=O)c1,> 80 µM (inactive)
9,O=C1C(Cl)=C(NCc2ccco2)C(=O)c2ccccc21,4.97 µM
10,CCOC(=O)N/N=C\c1ccc([N+](=O)[O-])s1,12.3 µM
11,COCCN1CCC(CNCc2cn(-c3cc(C)ccc3C)nc2-c2ccccc2)C1 (configuration not stated),> 80 µM (inactive)
12,Cc1cc(C)n(-c2nc(NCCCN(C)C)c3c4c(sc3n2)CCCC4)n1,16.1 µM
13,CCOC(=O)c1cc(-c2ccc(F)cc2)n(CCC(=O)NC2CCN(Cc3ccccc3)CC2)c1C,> 80 µM (inactive)
14,CN1CCN(c2ccc(S(=O)(=O)N3CCCCC3)cc2NC(=O)/C=C/c2ccc(OC(F)F)cc2)CC1,> 80 µM (inactive)
15,CCCCCNCC(=O)Nc1cccc(C(=O)Nc2cccc(C(F)(F)F)c2)c1,11.6 µM
16,COc1cc2[nH]c3c(=O)n4c(nc3c2cc1OC)SCCC4,6.47 µM
17,CC(=O)Oc1c(Cl)cc(N(C(C)=O)S(=O)(=O)c2ccccc2)c2ccccc12,3.17 µM
18,CN1N=C(N)c2cn(C3OC(COP(=O)(O)O)C(O)C3O)c3ncnc1c23 (configuration not stated),35.1 µM (inactive)
19,CCCCN1CCc2c1nc1ccc(Br)cc1c2N,> 80 µM (inactive)
20,COc1cc(CNC(=O)Nc2nc(C(N)Cc3ccc(Cl)cc3)cs2)cc(OC)c1OC (configuration not stated),> 80 µM (inactive)
21,CNc1nc(-c2c[nH]c3ccccc23)cs1,4.99 µM

row,Structure (SMILES),EC50
1,CCCCCOc1ccc(NC(=O)C(=O)NCC2CCCN2CC)cc1 (configuration not stated),8.54 µM
2,CC(C)c1ccc(NC(=O)C2Cc3c(-c4ccc(Cl)cc4)ccnc3O2)cc1 (configuration not stated),3.98 µM
3,Cc1cccc(NC(=S)N(CCCN2CCCC2)Cc2cccn2Cc2ccc(Cl)cc2)c1,> 80 µM (inactive)
4,N#Cc1ccsc1NC(=O)c1ccc2ncsc2c1,42.7 µM
5,CCOc1ccc(-n2cc(C(=O)N3CCCCCC3)c3cc(OC)c(OC)cc3c2=O)cc1,5.6 µM
6,Brc1ccc2ncnc(NCc3ccccc3)c2c1,3.34 µM
7,Brc1cccc(-c2nc3c4ccccc4ccn3c2CC2CCCCC2)c1,23.7 µM
8,O=C(Nc1cccc2ccccc12)c1ccc([N+](=O)[O-])s1,6.88 µM
9,Cc1cccc(CN2CCC(CNC(=O)Nc3ccc(F)c(Cl)c3)CC2)c1,8.57 µM
10,CC(C)OC(=O)CN1C(=O)C(=O)c2ccccc21,6.56 µM
11,CCOc1ccc(NC(=O)c2ccc(F)c(S(=O)(=O)N3CCN(c4ccccn4)CC3)c2)cc1,> 80 µM (inactive)
12,Cc1ccnc(-n2c(C)nc3ccccc3c2=O)c1,> 80 µM (inactive)
13,CC(C)Oc1ccc(OCCCN2CCCCCC2)cc1,12.4 µM
14,N=c1n(CCN2CCOCC2)c2ccccc2n1CC(=O)c1ccc(Cl)c(Cl)c1,47.1 µM (inactive)
15,NC(c1csc(Nc2cc(Oc3ccccc3)ncn2)n1)C1CCCCC1 (configuration not stated),7.32 µM
16,CS(=O)(=O)c1ccc(Nc2nc(C(N)Cc3ccc(Cl)cc3)cs2)cc1 (configuration not stated),8.93 µM
17,CC1CCCN(S(=O)(=O)c2ccc(C(=O)Nc3sc4c(c3C(N)=O)CCN(C)C4)cc2)C1 (configuration not stated),12.3 µM
18,Cn1c(=N)n(CC(=O)c2ccc(Br)cc2)c2ccccc21,42.7 µM (inactive)
19,CC1CCCN(CCCNC(=O)c2nn(C)c3c2CSc2ccccc2-3)C1 (configuration not stated),8.18 µM
20,COc1cc(CNCCN(C)C)ccc1OCc1c(F)cccc1Cl,18 µM
21,COCCNc1nc(NCCOc2ccccc2)c2sc(-c3ccccc3)cc2n1,7.86 µM

row,Structure (SMILES),EC50
1,O=C(Nc1ccccc1F)c1ccc([N+](=O)[O-])s1,8.89 µM
2,Cc1ccc(NC(=O)c2ccc([N+](=O)[O-])s2)cc1S(=O)(=O)N1CCOCC1,5.92 µM
3,Cc1cncn1CCc1nc2c3ccccc3nc(SCC(=O)Nc3cccc(Cl)c3)n2n1,> 80 µM (inactive)
4,CCC(C)Nc1nc(-c2c[nH]c3ccccc23)cs1 (configuration not stated),4.36 µM
5,CCn1cc(CN2CCC(C(=O)Nc3cccc(-c4cccc(Cl)c4)c3)CC2)c(C)n1,6.99 µM
6,CCN(CC)CCn1c(=N)n(CC(=O)c2ccc(C)cc2)c2ccccc21,24.5 µM
7,CCCCN(C)CCNC(=O)c1cc(-c2cccnc2)nc2ccc(S(=O)(=O)N3CCC(C)CC3)cc12,> 80 µM (inactive)
8,CCOc1ccc(N2CC(C(=O)N3CCN(c4ccccn4)CC3)CC2=O)cc1 (configuration not stated),11.8 µM
9,O=C(CNC(=O)c1ccccc1)N/N=C/c1ccc([N+](=O)[O-])s1,6.46 µM
10,CC(C)(C)c1ccc(C(=O)Nc2ccc(C(=O)NCc3cccnc3)cc2)cc1,2.48 µM
11,N#Cc1ccsc1NC(=O)c1cccc(-n2cnnn2)c1,20.7 µM
12,C/C=C/c1ccc(OCCCNC2CCCC2)c(OC)c1,11.7 µM
13,Cc1nc(SCC(=O)Nc2cc(C(N)=O)cc(C(N)=O)c2)c2c(C)c(C)sc2n1,28.5 µM
14,Cc1cc(NCc2ccccn2)n2ncc(-c3ccc(Cl)cc3)c2n1,3.48 µM
15,CCc1ccc(C2c3[nH]c4ccccc4c3CCN2C(=O)CN2CCN(CC)CC2)cc1 (configuration not stated),> 80 µM (inactive)
16,CN(C)CCCNS(=O)(=O)c1ccc(NC2CCCCCC2)c([N+](=O)[O-])c1,6.11 µM
17,O=C(CNC(=O)c1ccccc1Cl)N/N=C/c1ccc([N+](=O)[O-])s1,7.48 µM
18,CCCCCOc1ccc(/C(C)=N/NC2=NCCN2)cc1,5.81 µM
19,c1ccc2c(-c3cc(C4CCNCC4)[nH]n3)cccc2c1,> 80 µM (inactive)
